Patent publication US5578725A, “Delta opioid receptor antagonists” (priority 1995, dated 1996)

What was measured:
μ = μ (Cavia porcellus, UniProt A0ACM8Q262); settings: data from Portoghese et al.; cited from earlier work
δ opioid receptors = δ opioid receptors (Mus musculus, UniProt P32300); set-up: mouse vas deferens (MVD) preparations; from tissue; host or cells: mouse vas deferens, electrically stimulated; settings: MVD, DADLE; data from Korlipara et al.; 15 min; read-out: Ke; cited from earlier work
[1] = K. Arakawa et al.; cited from earlier work
rats = settings: compared to peptidyl delta-opioid receptor antagonists; Ser. No. 07/750,109; cited from earlier work
δ1 = δ1 (Mus musculus, UniProt P32300); settings: mouse, in vivo
Chain of δ1 (P32300 whole entry): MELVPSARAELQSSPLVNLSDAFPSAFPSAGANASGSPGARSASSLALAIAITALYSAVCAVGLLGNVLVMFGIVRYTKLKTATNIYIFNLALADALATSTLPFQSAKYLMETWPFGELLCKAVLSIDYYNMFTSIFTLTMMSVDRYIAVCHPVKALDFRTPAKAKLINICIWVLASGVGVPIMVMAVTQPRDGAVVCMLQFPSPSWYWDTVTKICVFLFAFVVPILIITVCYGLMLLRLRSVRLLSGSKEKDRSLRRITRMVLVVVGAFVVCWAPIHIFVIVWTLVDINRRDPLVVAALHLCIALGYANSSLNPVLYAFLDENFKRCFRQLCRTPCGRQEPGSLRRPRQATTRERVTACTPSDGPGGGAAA

Chain of μ (A0ACM8Q262 1-400): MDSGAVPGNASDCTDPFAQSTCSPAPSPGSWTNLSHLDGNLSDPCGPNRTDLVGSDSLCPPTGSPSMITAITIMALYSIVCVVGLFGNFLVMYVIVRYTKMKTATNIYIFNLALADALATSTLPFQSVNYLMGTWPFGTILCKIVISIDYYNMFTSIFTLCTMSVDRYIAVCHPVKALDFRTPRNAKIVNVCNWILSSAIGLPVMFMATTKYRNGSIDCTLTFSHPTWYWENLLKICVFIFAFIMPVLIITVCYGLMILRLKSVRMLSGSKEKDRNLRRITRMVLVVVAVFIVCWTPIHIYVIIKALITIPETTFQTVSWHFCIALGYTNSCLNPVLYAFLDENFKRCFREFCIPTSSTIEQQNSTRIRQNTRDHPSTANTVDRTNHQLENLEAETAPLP
Chain of δ opioid receptors (P32300 whole entry): as the sequence (P32300 whole entry) above

In the case of `Oc1ccc2c3c1O[C@H]1c4[nH]c5ccccc5c4C[C@@]4(O)[C@@H](C2)N(CC2CC2)CC[C@]314` [Compound 1, naltrindole], the Ki (μ) is listed as 3.8 nM, the Kb (δ opioid receptors) is listed as 0.2 nM and the “immunosuppressive activity (in words)” value [1] is listed as “potent immunosuppressive activity”. The “suppression of ethanol drinking (in words)” value (rats) was “unexpectedly prolonged suppression of ethanol drinking”, the “Dose required to double the ED50 of DPDPE, i.c.v.” value (δ1) was 0.3 nmol/kg and the “Dose required to double the ED50 of DPDPE, i.v.” value (δ1; iv) was 2.19 µmol/kg. For the same molecule, the “penetration into the CNS (in words)” value (δ1; iv) was “penetrates the CNS more readily than the conjugates”.
